Measurements: US8933075B2, “Compounds useful as antiviral agents, compositions, and methods of use” (priority 2010, dated 2015)

Assays:
[1] = test system: influenza viruses that have HA subtype H3; conditions: cited from earlier work
[2] = test system: influenza viruses that have HA subtypes H1 and H2; conditions: cited from earlier work
A/Udorn/72 (H3N2) virus = test: Plaque assay in MDCK cells: EC50 by reduction of plaque number; format: cell-based, influenza virus; conditions: MDCK
pseudoHIV particles = test: HIV pseudovirus assay in X4 cells (luciferase); format: cell-based, HIV-1; conditions: Human immunodeficiency virus 1, read-out: HIV EC50
Description: A plasmid coding the HIV-1 genome, deleting the envelope protein gene and with a luciferase gene inserted, and a plasmid coding the envelope protein gene were cotransfected into 293T cells. After 48 hr, the supernatant containing pseudoHlV particles was collected for transducing assay. In 96 well plates, X4 cells were plated and incubated till confluent. The pseudoHlV particles were incubated with various concentrations of inhibitor compounds for one hour in room temperature. The particles were then used for tranducing X4 cells. The transduced X4 cells were lysed after 48 hr and the luciferase activity was measured in a luminometer.

influenza virus = conditions: cited from earlier work
H1 and H2 viruses = conditions: cited from earlier work
H3 viruses = conditions: cited from earlier work

Q: For `C[C@@H]1CCC[C@@H]2C[C@@H](NC(=O)c3cc(Cl)c(N)cc3O)CCN21` [BMY-27709], which “activity against H3” value [1] is on record?
A: not H3

Q: What about the EC50 [2] of the same molecule?
A: 6000 to 8000 nM

Q: With `COc1cc(OC)cc(-c2cc(CCCNC(=O)[C@@H](N)c3ccccc3)c(/C=C3\SC(=S)N(C4CC5CCC4C5)C3=O)o2)c1` (stereo partly drawn) [Compound 170] as the molecule, how does the EC50 (A/Udorn/72 (H3N2) virus) read?
A: < 100 nM

Q: And the EC50 (pseudoHIV particles)?
A: < 100 nM

Q: With `COc1cc(OC)cc(-c2cc(CCCNC(=O)[C@@H](N)Cc3ccccc3)c(/C=C3\SC(=S)N(C4CC5CCC4C5)C3=O)o2)c1` (stereo partly drawn) [Compound 171] as the molecule, how does the EC50 (A/Udorn/72 (H3N2) virus) read?
A: < 100 nM

Q: What about the EC50 (pseudoHIV particles) of the same molecule?
A: < 100 nM

Q: What does the source list for `COc1cc(O)cc(-c2cc(CCCNC(=O)[C@@H](N)CC(N)=O)c(/C=C3\SC(=S)N(C4CC5CCC4C5)C3=O)o2)c1` (stereo partly drawn) [Compound 174]?
A: EC50 (A/Udorn/72 (H3N2) virus): < 100 nM; EC50 (pseudoHIV particles): < 100 nM

Q: Which EC50 (A/Udorn/72 (H3N2) virus) does the source give for `O=C1/C(=C/c2oc(-c3ccc(Cl)cc3)cc2CCCN2CCNCC2)SC(=S)N1C1CC2CCC1C2` (stereo not drawn) [Compound 186] here?
A: < 100 nM

Q: And the EC50 (pseudoHIV particles)?
A: < 100 nM

Q: With `COc1cc(O)cc(-c2cc(CCCNC(=N)N)c(/C=C3\SC(=S)N(C4CC5CCC4C5)C3=O)o2)c1` (stereo not drawn) [Compound 194] as the molecule, how does the EC50 (A/Udorn/72 (H3N2) virus) read?
A: < 100 nM

Q: What about the EC50 (pseudoHIV particles) of the same molecule?
A: < 100 nM

Q: With `COc1cc(OC)cc(-c2cc(CCCNC(=N)N)c(/C=C3\SC(=S)N(C4CC5CCC4C5)C3=O)o2)c1` (stereo not drawn) [Compound 195] as the molecule, how does the EC50 (A/Udorn/72 (H3N2) virus) read?
A: < 100 nM

Q: What about the EC50 (pseudoHIV particles) of the same molecule?
A: < 100 nM

Q: Which results are given for `COc1cc(OC)cc(-c2cc(CCCn3nnc(CO)c3CO)c(/C=C3\SC(=S)N(C4CC5CCC4C5)C3=O)o2)c1` (stereo not drawn) [Compound 200, (Z)-3-(bicyclo[2.2.1]heptan-2-yl)-5-((3-(3-(4′,5′-bis(hydroxymethyl)-1H-1′,2′,3′-triazol-1-yl)propyl)-5-(3′,5′-dimethoxyphenyl)furan-2-yl)methylene)-2-thioxothiazolidin-4-one]?
A: EC50 (A/Udorn/72 (H3N2) virus): < 100 nM; EC50 (pseudoHIV particles): < 100 nM

Q: Which EC50 (A/Udorn/72 (H3N2) virus) does the source give for `COc1cc(OC)cc(-c2cc(CCCn3nnc(CO)c3CO)c(/C=C3\SC(=S)N(C4C5CC6CC(C5)CC4C6)C3=O)o2)c1` (stereo not drawn) [Compound 201, (Z)-3-(adamantan-2-yl)-5-((3-(3-(4′,5′-bis(hydroxymethyl)-1H-1′,2′,3′-triazol-1-yl)propyl)-5-(3′,5′-dimetho-xyphenyl)furan-2-yl)methylene)-2-thioxothiazolidin-4-one] here?
A: < 100 nM

Q: What about the EC50 (pseudoHIV particles) of the same molecule?
A: < 100 nM

Q: For `OC(CCN1CCCCC1)(c1ccccc1)C1C2CC3C(C2)C31` (stereo not drawn) [Triperiden], which “concentration inhibiting influenza virus replication” value (influenza virus) is on record?
A: 20 µg/mL

Q: Which results are given for Stachyflin?
A: EC50 (H1 and H2 viruses): μM range; activity against H3 viruses (H3 viruses): not H3
